From PMC6598440 (Clinical chemistry, 2016)
Read-outs that look alike come from different tables or passages of the source.

Tests used:
[1] = cited from earlier work
[2] = Comparison of plasma and whole blood hydroxyurea concentrations; assay type: in vivo, patients with SCA
[3] = for degradation: whole dried blood on DMPK-C cards and VAMS devices, 4 °C, 30 days

## NC(=O)NO [hydroxyurea, Hydroxyurea]
[1]; children with SCA, measured by colorimetry
  typical peak serum or plasma hydroxyurea concentrations: 15 to 45 µg/mL
[1]
  elimination: primarily by renal clearance
  half-life: 1 to 3 h
[1]; most patients
  time drug is detectable after the daily dose: 6 to 8 h
[1]; oral, once daily
  time of peak serum concentrations after administration: 15 to 60 min
[1]; oral
  oral bioavailability: excellent
[2]; patients with SCA treated with hydroxyurea, venipuncture or finger-prick sampling
  hydroxyurea concentrations in plasma and whole blood compared: comparable
[2]; preliminary data using an HPLC method
  plasma and whole blood hydroxyurea concentrations compared: equivalent
[3]; DMPK-C cards, stored at 4 °C, 0.5 μg/mL, T = 7 days
  % of the target concentration measured in freshly prepared samples: 90.17 ± 0.44%
[3]; DMPK-C cards, stored at 4 °C, 0.5 μg/mL, T = 14 days
  % of the target concentration measured in freshly prepared samples: 81.75 ± 3.85%
[3]; DMPK-C cards, stored at 4 °C, 0.5 μg/mL, T = 30 days
  % of the target concentration measured in freshly prepared samples: 75.85 ± 4.08%
[3]; DMPK-C cards, stored at 4 °C, 60.0 μg/mL, T = 7 days
  % of the target concentration measured in freshly prepared samples: 65.37 ± 1.07%
[3]; DMPK-C cards, stored at 4 °C, 60.0 μg/mL, T = 14 days
  % of the target concentration measured in freshly prepared samples: 54.13 ± 3.39%
[3]; DMPK-C cards, stored at 4 °C, 60.0 μg/mL, T = 30 days
  % of the target concentration measured in freshly prepared samples: 48.58 ± 0.23%
[3]; DMPK-C cards, stored at −20 °C, 0.5 μg/mL, T = 7 days
  % of the target concentration measured in freshly prepared samples: 95.08 ± 0.01%
[3]; DMPK-C cards, stored at −20 °C, 0.5 μg/mL, T = 14 days
  % of the target concentration measured in freshly prepared samples: 90.56 ± 13.29%
[3]; DMPK-C cards, stored at −20 °C, 0.5 μg/mL, T = 30 days
  % of the target concentration measured in freshly prepared samples: 96.07 ± 5.12%
[3]; DMPK-C cards, stored at −20 °C, 60.0 μg/mL, T = 7 days
  % of the target concentration measured in freshly prepared samples: 90.88 ± 1.83%
[3]; DMPK-C cards, stored at −20 °C, 60.0 μg/mL, T = 14 days
  % of the target concentration measured in freshly prepared samples: 92.99 ± 2.03%
[3]; DMPK-C cards, stored at −20 °C, 60.0 μg/mL, T = 30 days
  % of the target concentration measured in freshly prepared samples: 93.07 ± 3.11%
[3]; DMPK-C cards, stored at −80 °C, 0.5 μg/mL, T = 7 days
  % of the target concentration measured in freshly prepared samples: 102.14 ± 0.59%
[3]; DMPK-C cards, stored at −80 °C, 0.5 μg/mL, T = 14 days
  % of the target concentration measured in freshly prepared samples: 97.41 ± 14.36%
[3]; DMPK-C cards, stored at −80 °C, 0.5 μg/mL, T = 30 days
  % of the target concentration measured in freshly prepared samples: 99.98 ± 3.81%
[3]; DMPK-C cards, stored at −80 °C, 60.0 μg/mL, T = 7 days
  % of the target concentration measured in freshly prepared samples: 93.69 ± 3.64%
[3]; DMPK-C cards, stored at −80 °C, 60.0 μg/mL, T = 14 days
  % of the target concentration measured in freshly prepared samples: 94.22 ± 2.34%
[3]; DMPK-C cards, stored at −80 °C, 60.0 μg/mL, T = 30 days
  % of the target concentration measured in freshly prepared samples: 100.45 ± 1.09%
[3]; VAMS devices, stored at 4 °C, 0.5 μg/mL, T = 7 days
  % of the target concentration measured in freshly prepared samples: 87.90 ± 10.32%
[3]; VAMS devices, stored at 4 °C, 0.5 μg/mL, T = 14 days
  % of the target concentration measured in freshly prepared samples: 91.86 ± 7.97%
[3]; VAMS devices, stored at 4 °C, 0.5 μg/mL, T = 30 days
  % of the target concentration measured in freshly prepared samples: 75.11 ± 0.56%
[3]; VAMS devices, stored at 4 °C, 60.0 μg/mL, T = 7 days
  % of the target concentration measured in freshly prepared samples: 64.19 ± 1.28%
[3]; VAMS devices, stored at 4 °C, 60.0 μg/mL, T = 14 days
  % of the target concentration measured in freshly prepared samples: 51.98 ± 0.46%
[3]; VAMS devices, stored at 4 °C, 60.0 μg/mL, T = 30 days
  % of the target concentration measured in freshly prepared samples: 46.14 ± 0.98%
[3]; VAMS devices, stored at −20 °C, 0.5 μg/mL, T = 7 days
  % of the target concentration measured in freshly prepared samples: 106.52 ± 12.11%
[3]; VAMS devices, stored at −20 °C, 0.5 μg/mL, T = 14 days
  % of the target concentration measured in freshly prepared samples: 103.15 ± 2.56%
[3]; VAMS devices, stored at −20 °C, 0.5 μg/mL, T = 30 days
  % of the target concentration measured in freshly prepared samples: 95.37 ± 6.01%
[3]; VAMS devices, stored at −20 °C, 60.0 μg/mL, T = 7 days
  % of the target concentration measured in freshly prepared samples: 83.69 ± 1.28%
[3]; VAMS devices, stored at −20 °C, 60.0 μg/mL, T = 14 days
  % of the target concentration measured in freshly prepared samples: 82.55 ± 1.65%
[3]; VAMS devices, stored at −20 °C, 60.0 μg/mL, T = 30 days
  % of the target concentration measured in freshly prepared samples: 82.48 ± 0.78%
[3]; VAMS devices, stored at −80 °C, 0.5 μg/mL, T = 7 days
  % of the target concentration measured in freshly prepared samples: 101.92 ± 10.34%
[3]; VAMS devices, stored at −80 °C, 0.5 μg/mL, T = 14 days
  % of the target concentration measured in freshly prepared samples: 103.58 ± 3.20%
[3]; VAMS devices, stored at −80 °C, 0.5 μg/mL, T = 30 days
  % of the target concentration measured in freshly prepared samples: 106.00 ± 8.10%
[3]; VAMS devices, stored at −80 °C, 60.0 μg/mL, T = 7 days
  % of the target concentration measured in freshly prepared samples: 86.62 ± 1.86%
[3]; VAMS devices, stored at −80 °C, 60.0 μg/mL, T = 14 days
  % of the target concentration measured in freshly prepared samples: 90.21 ± 0.94%
[3]; VAMS devices, stored at −80 °C, 60.0 μg/mL, T = 30 days
  % of the target concentration measured in freshly prepared samples: 93.53 ± 0.68%
[3]; 0.5 μg/mL
  degradation: 25%
[3]; 60 μg/mL
  degradation: 52%
